Assay results from US20250249006A1, “TREATMENT” (Verona Pharma PLC, priority 2024, published 2025).

How the values were obtained:
[1] = system: patients aged 40-80 years with moderate to severe COPD; experiment: Clinical studies, ensifentrine vs placebo: COPD symptom responders (E-RS −2 units or TDI +1 unit) in patients with low FEV1 response; format: in vivo; details: for Ensifentrine vs. Placebo Odds Ratio, E-RS (−2 Unit) or TDI (+1 Unit) Responders / Odds in favor of a response, E-RS (−2 Unit) or TDI (+1 Unit) Responders / Ensifentrine vs. Placebo Odds Ratio, TDI (+1 Unit) or E-RS (−2 Unit) Responders / Odds in favor of a response, TDI (+1 Unit) or E-RS (−2 Unit) Responders: logistic regression; for Ensifentrine vs. Placebo Odds Ratio, E-RS (−2 Unit) or TDI (+1 Unit) Responders / Odds in favor of a response, E-RS (−2 Unit) or TDI (+1 Unit) Responders / % E-RS (−2 Unit) or TDI (+1 Unit) Responders / % responders, E-RS (−2 Units) or TDI (+1 Unit) Responders / Ensifentrine v placebo Odds Ratio, E-RS (−2 Units) or TDI (+1 Unit) Responders / Odds in favour of response, E-RS (−2 Units) or TDI (+1 Unit) Responders / Ensifentrine vs. Placebo Odds Ratio, TDI (+1 Unit) or E-RS (−2 Unit) Responders / Odds in favor of a response, TDI (+1 Unit) or E-RS (−2 Unit) Responders / % TDI (+1 Unit) or E-RS (−2 Unit) Responders: pooled mITT; for % E-RS (−2 Unit) or TDI (+1 Unit) Responders / % responders, E-RS (−2 Units) or TDI (+1 Unit) Responders / % TDI (+1 Unit) or E-RS (−2 Unit) Responders: 3 mg BID nebuliser; for % responders, E-RS (−2 Units) or TDI (+1 Unit) Responders / Ensifentrine v placebo Odds Ratio, E-RS (−2 Units) or TDI (+1 Unit) Responders / Odds in favour of response, E-RS (−2 Units) or TDI (+1 Unit) Responders: improvement in morning trough FEV1 less than 40 mL (table line prints <60 mL); for proportion of patients with a clinically important improvement in symptoms: over 24 weeks
Description: (§1) Clinical studies were conducted to determine the efficacy of ensifentrine in treating COPD compared with placebo. Ensifentrine was administered by nebuliser at a dose of 3 mg twice daily (BID) for 24 weeks. The studies were multi-centre, randomized, double-blind, parallel-group, placebo-controlled trials.
(§2) The study population included patients aged 40-80 years with moderate to severe COPD (FEV1 30%-70% p.n., FEV1/forced vital capacity (FVC) ratio<0.7, with mMRC≥2). The randomization stratified (a) the use of stable background maintenance LAMA or LABA therapy use (approx. 50%. yes or no) and (b) cigarette smoking (current or former). Inhaled corticosteroid (ICS) maintenance therapy was permitted in up to 20% of patients under certain provisions.
(§3) The primary endpoint was change from baseline in average FEV1 area under the curve AUC0-12h post-dose at week 12. Also assessed were COPD symptoms and quality of life (QoL) in patients showing lower responses in terms of lung function, and in particular patients with: (i) improvement in average FEV1 AUC0-12h of less than 100 mL and (ii) improvement in morning trough FEV1 of less than 100 mL, less than 60 mL or less than 40 mL.
(§4) COPD symptoms were assessed using Evaluating Respiratory Symptoms (E-RS; EXACT-Respiratory Symptoms, The minimal clinically important difference (MCID) of the E-RS is a total score of −2 units. User Manual (Version 3.0), October 2014) and Transitional Dyspnea Index (TDI; Mahler et al, The MCID of the transition dyspnea index is a total score of one unit. COPD 2005, 2:99-103.) and QoL was assessed using the St. George's Respiratory Questionnaire (SGRQ; Jones, St. George's Respiratory Questionnaire: The MCID of the SGRQ is a total score of −4 units. COPD 2005, 2:75-79.).

[2] = system: patients aged 40-80 years with moderate to severe COPD; experiment: Clinical studies, ensifentrine vs placebo: quality of life responders (SGRQ −4 units) in patients with low FEV1 response; format: in vivo
Description: as §1, §2, §3, §4

[3] = FEV1 AUC0-12h <100 mL or morning trough FEV1 <100, <60 or <40 mL, overall conclusion
[4] = average FEV1 AUC0-12h <100 mL at Week 12, Week 6
[5] = average FEV1 AUC0-12h <100 mL at Week 12, Week 12
[6] = average FEV1 AUC0-12h <100 mL at Week 12, Week 24
[7] = morning trough FEV1 <60 mL at Week 6, Week 6
[8] = morning trough FEV1 <60 mL at Week 12, Week 12
[9] = morning trough FEV1 <60 mL at Week 24, Week 24
[10] = morning trough FEV1 <100 mL at Week 6, Week 6
[11] = morning trough FEV1 <100 mL at Week 12, Week 12
[12] = morning trough FEV1 <100 mL at Week 24, Week 24

COc1cc2c(cc1OC)-c1c/c(=N\c3c(C)cc(C)cc3C)n(CCNC(N)=O)c(=O)n1CC2 [Ensifentrine, N-(2-{(2E)-9,10-dimethoxy-4-oxo-2-[(2,4,6-trimethylphenyl)imino]-6,7-dihydro-2H-pyrimido[6,1-a]isoquinolin-3(4H)-yl}ethyl)urea]
subjects achieving symptom MCID [1, 3]: approximately 70%
Ensifentrine vs. Placebo Odds Ratio, E-RS (−2 Unit) or TDI (+1 Unit) Responders [1, 4]: 1.42
Odds in favor of a response, E-RS (−2 Unit) or TDI (+1 Unit) Responders [1, 4]: 1.69
Ensifentrine vs. Placebo Odds Ratio, E-RS (−2 Unit) or TDI (+1 Unit) Responders [1, 5]: 1.63
Odds in favor of a response, E-RS (−2 Unit) or TDI (+1 Unit) Responders [1, 5]: 2.69
Ensifentrine vs. Placebo Odds Ratio, E-RS (−2 Unit) or TDI (+1 Unit) Responders [1, 6]: 1.38
Odds in favor of a response, E-RS (−2 Unit) or TDI (+1 Unit) Responders [1, 6]: 2.91
% E-RS (−2 Unit) or TDI (+1 Unit) Responders ([1]; average FEV1 AUC0-12h <100 mL at Week 12, responders at Week 6): 66.3%
% E-RS (−2 Unit) or TDI (+1 Unit) Responders ([1]; average FEV1 AUC0-12h <100 mL at Week 12, responders at Week 12): 71.2%
% E-RS (−2 Unit) or TDI (+1 Unit) Responders ([1]; average FEV1 AUC0-12h <100 mL at Week 12, responders at Week 24): 72.7%
% responders, E-RS (−2 Units) or TDI (+1 Unit) Responders ([1]; Week 6): 67.1%
Ensifentrine v placebo Odds Ratio, E-RS (−2 Units) or TDI (+1 Unit) Responders ([1]; Week 6): 1.468
Odds in favour of response, E-RS (−2 Units) or TDI (+1 Unit) Responders ([1]; Week 6): 1.453
% responders, E-RS (−2 Units) or TDI (+1 Unit) Responders ([1]; Week 12): 70.4%
Ensifentrine v placebo Odds Ratio, E-RS (−2 Units) or TDI (+1 Unit) Responders ([1]; Week 12): 1.433
Odds in favour of response, E-RS (−2 Units) or TDI (+1 Unit) Responders ([1]; Week 12): 2.338
% responders, E-RS (−2 Units) or TDI (+1 Unit) Responders ([1]; Week 24): 73.0%
Ensifentrine v placebo Odds Ratio, E-RS (−2 Units) or TDI (+1 Unit) Responders ([1]; Week 24): 1.370
Odds in favour of response, E-RS (−2 Units) or TDI (+1 Unit) Responders ([1]; Week 24): 3.238
proportion of patients with a clinically important improvement in symptoms ([1]; increase in average FEV1 AUC0-12h less than 100 mL at Week 12): at least ⅔
proportion of patients with a clinically important improvement in symptoms ([1]; increase in morning trough FEV1 less than 100 mL at Week 12): at least ⅔
Ensifentrine vs. Placebo Odds Ratio, TDI (+1 Unit) or E-RS (−2 Unit) Responders [1, 7]: 1.42
Odds in favor of a response, TDI (+1 Unit) or E-RS (−2 Unit) Responders [1, 7]: 1.35
% TDI (+1 Unit) or E-RS (−2 Unit) Responders ([1]; morning trough FEV1 <60 mL at Week 6, responders at Week 6): 65.3%
Ensifentrine vs. Placebo Odds Ratio, TDI (+1 Unit) or E-RS (−2 Unit) Responders [1, 8]: 1.59
Odds in favor of a response, TDI (+1 Unit) or E-RS (−2 Unit) Responders [1, 8]: 2.83
% TDI (+1 Unit) or E-RS (−2 Unit) Responders ([1]; morning trough FEV1 <60 mL at Week 12, responders at Week 12): 71.3%
Ensifentrine vs. Placebo Odds Ratio, TDI (+1 Unit) or E-RS (−2 Unit) Responders [1, 9]: 1.36
Odds in favor of a response, TDI (+1 Unit) or E-RS (−2 Unit) Responders [1, 9]: 2.74
% TDI (+1 Unit) or E-RS (−2 Unit) Responders ([1]; morning trough FEV1 <60 mL at Week 24, responders at Week 24): 71.7%
Ensifentrine vs. Placebo Odds Ratio, E-RS (−2 Unit) or TDI (+1 Unit) Responders [1, 10]: 1.43
Odds in favor of a response, E-RS (−2 Unit) or TDI (+1 Unit) Responders [1, 10]: 1.47
% E-RS (−2 Unit) or TDI (+1 Unit) Responders ([1]; morning trough FEV1 <100 mL at Week 6, responders at Week 6): 66.1%
Ensifentrine vs. Placebo Odds Ratio, E-RS (−2 Unit) or TDI (+1 Unit) Responders [1, 11]: 1.73
Odds in favor of a response, E-RS (−2 Unit) or TDI (+1 Unit) Responders [1, 11]: 2.96
% E-RS (−2 Unit) or TDI (+1 Unit) Responders ([1]; morning trough FEV1 <100 mL at Week 12, responders at Week 12): 71.9%
Ensifentrine vs. Placebo Odds Ratio, E-RS (−2 Unit) or TDI (+1 Unit) Responders [1, 12]: 1.42
Odds in favor of a response, E-RS (−2 Unit) or TDI (+1 Unit) Responders [1, 12]: 2.75
% E-RS (−2 Unit) or TDI (+1 Unit) Responders ([1]; morning trough FEV1 <100 mL at Week 24, responders at Week 24): 72.0%
subjects achieving QoL MCID [2, 3]: ~50%
Ensifentrine vs. Placebo Odds Ratio, SGRQ (−4 Unit) Responders ([2]; average FEV1 AUC0-12h <100 mL at Week 12, Week 6, logistic regression, pooled mITT): 1.32
